Assays:
[1] = tested on: actinic keratosis lesions; assay: Preliminary study: 5% ibuprofen gel vs 3% diclofenac gel in patients with actinic keratosis; settings: for Development of new lesions during treatment: 90 days of treatment; for Average number of lesions at the start of the study: baseline; for Average number of lesions (total): all areas; for Severity of the lesions (BSI score): during the 90 days of treatment; for Investigator global improvement index (IGII): scale -2 to +4
Description: The study was performed according to the relevant criteria and was approved by the ethics commission of the dermatological society of Slovakia.
(§1) The application frequency was twice a day. The success of the treatment was evaluated after 30, 60 and 90 days.
(§2) When included in the study, the severity of the lesions was evaluated according to the so-called BSI (baseline severity index) score from 0 to 3. Patients having a BSI score of 1 and 2 were exclusively included in the study.
BSI score (baseline severity index score 1-3) • 0=no actinic keratosis (AK) visible • 1=clearly visible lesion • 2=many small, moderately thick lesions or a few large scaly lesions visible • 3=many thick hypertrophic lesions that are clearly visible and palpable with clear bounds.
(§3) The main target parameters within the scope of effectiveness were the total number of lesions in the treatment area and the IGII (investigator global improvement index) score from −2 to +4. From round 1, the evaluations were always done in comparison with the preliminary round.
(§4) IGII (investigator global improvement index) • −2 significant worsening • −1 slight worsening • 0 unchanged • 1 slight improvement • 2 improvement • 3 significant improvement • 4 complete healing
The IGII was measured between each two rounds.

[2] = tested on: actinic keratosis lesions; assay: Second study: 10% ibuprofen gel vs 3% diclofenac gel in patients with actinic keratosis; settings: for Average number of lesions at the start of the study: baseline; for Average IGII at the end of the treatment time: all areas; for Average IGII at the end of the treatment time / Investigator global improvement index (IGII): scale -2 to +4
Description: as §1, §2, §3, §4
The design of the study was the same as that of the first study.

[3] = cited from earlier work
[4] = 5% ibuprofen gel or 3% diclofenac gel
[5] = Face, 90 days, 5% ibuprofen gel or 3% diclofenac gel twice a day
[6] = Face, 5% ibuprofen gel or 3% diclofenac gel
[7] = Forehead, 90 days, 5% ibuprofen gel or 3% diclofenac gel twice a day
[8] = Forehead, 5% ibuprofen gel or 3% diclofenac gel twice a day, 12 patients per group
[9] = Hands, 90 days, 5% ibuprofen gel or 3% diclofenac gel twice a day
[10] = Hands, 5% ibuprofen gel or 3% diclofenac gel
[11] = Scalp, 90 days, 5% ibuprofen gel or 3% diclofenac gel twice a day
[12] = Scalp, 5% ibuprofen gel or 3% diclofenac gel
[13] = after 90 days of treatment, 5% ibuprofen gel or 3% diclofenac gel twice a day
[14] = start of study, 5% ibuprofen gel or 3% diclofenac gel
[15] = Face, 90 days, 10% ibuprofen gel or 3% diclofenac gel
[16] = Face, 10% ibuprofen gel or 3% diclofenac gel
[17] = Forehead, 90 days, 10% ibuprofen gel or 3% diclofenac gel
[18] = Forehead, 10% ibuprofen gel or 3% diclofenac gel, 6 patients per group
[19] = Hands, 90 days, 10% ibuprofen gel or 3% diclofenac gel
[20] = Hands, 10% ibuprofen gel or 3% diclofenac gel
[21] = 90 days, 10% ibuprofen gel or 3% diclofenac gel
[22] = beginning of the treatment, 10% ibuprofen gel or 3% diclofenac gel
[23] = end of the 90 days of treatment, 10% ibuprofen gel or 3% diclofenac gel
[24] = Forehead, V0 (start of the study)

O=C(O)Cc1ccccc1Nc1c(Cl)cccc1Cl [Diclofenac, diclofenac]
Development of new lesions during treatment [1, 4]: None of the patients developed new lesions | Average number of lesions after 90 days of treatment [1, 5]: 5.5 | Average number of lesions at the start of the study [1, 6]: 7 | Average number of lesions after 90 days of treatment [1, 7]: 5.3 | Average number of lesions at the start of the study [1, 8]: 7.1 | Average number of lesions after 90 days of treatment [1, 9]: 17.1 | Average number of lesions at the start of the study [1, 10]: 18.1 | Average number of lesions after 90 days of treatment [1, 11]: 11.5 | Average number of lesions at the start of the study [1, 12]: 15.8 | Average number of lesions (total) [1, 13]: 39.4 | Average number of lesions (total) [1, 14]: 48 | Severity of the lesions (BSI score) [1, 4]: remained virtually unchanged | Undesirable side effects ([1]; during the study, topical 5% ibuprofen gel or 3% diclofenac gel twice a day, 90 days): No undesirable side effects | Tolerability of the therapy ([1]; topical 5% ibuprofen gel or 3% diclofenac gel twice a day, 90 days): well tolerated | Tolerability ([2]; 10% ibuprofen gel or 3% diclofenac gel, 90 days topical): very good | Average number of lesions after 90 days of treatment [2, 15]: 6.2 | Average number of lesions at the start of the study [2, 16]: 12.3 | Average number of lesions after 90 days of treatment [2, 17]: 4.2 | Average number of lesions at the start of the study [2, 18]: 7.5 | Average number of lesions after 90 days of treatment [2, 19]: 8.8 | Average number of lesions at the start of the study [2, 20]: 17 | Average IGII at the end of the treatment time [2, 21]: 2.29 | Total number of lesions [2, 22]: 36.8 | Total number of lesions [2, 23]: 19.2

CC(C)Cc1ccc(C(C)C(=O)O)cc1 (stereo not drawn) [Ibuprofen, ibuprofen]
Plasma level necessary for a general systemic effect ([3]; systemic effect): ≥ 10000 ng/mL | Plasma level reached in topical application ([3]; topical application): about 2 μg/ml | Development of new lesions during treatment [1, 4]: None of the patients developed new lesions | Average number of lesions after 90 days of treatment [1, 5]: 4.8 | Investigator global improvement index (IGII) ([1]; Face, V0 (start of the study)): 0 | Investigator global improvement index (IGII) ([1]; Face, V3 (after 90 days of treatment), 5% ibuprofen gel or 3% diclofenac gel): 1.38 | Average number of lesions at the start of the study [1, 6]: 5.7 | Average number of lesions after 90 days of treatment [1, 7]: 4 | Investigator global improvement index (IGII) [1, 24]: 0 | Investigator global improvement index (IGII) ([1]; Forehead, V3 (after 90 days of treatment), 5% ibuprofen gel or 3% diclofenac gel): 1.33 | Average number of lesions at the start of the study [1, 8]: 4.6 | Investigator global improvement index (IGII) ([1]; Hand, V0 (start of the study)): 0 | Investigator global improvement index (IGII) ([1]; Hand, V3 (after 90 days of treatment), 5% ibuprofen gel or 3% diclofenac gel): 1 | Average number of lesions after 90 days of treatment [1, 9]: 16.9 | Average number of lesions at the start of the study [1, 10]: 18.5 | Average number of lesions after 90 days of treatment [1, 11]: 6 | Investigator global improvement index (IGII) ([1]; Scalp, V0 (start of the study)): 0 | Investigator global improvement index (IGII) ([1]; Scalp, V3 (after 90 days of treatment), 5% ibuprofen gel or 3% diclofenac gel): 1 | Average number of lesions at the start of the study [1, 12]: 6.3 | Average number of lesions (total) [1, 13]: 31.7 | Average number of lesions (total) [1, 14]: 35.1 | Severity of the lesions (BSI score) [1, 4]: remained virtually unchanged | Tolerability of the therapy ([1]; human, in vivo): well tolerated | Undesirable side effects ([1]; human, in vivo): No undesirable side effects | Therapeutic result in treating slight and moderate keratosis lesions (in words) ([2]; 10% ibuprofen gel or 3% diclofenac gel, 90 days): pronounced effectiveness | Average number of lesions after 90 days of treatment [2, 15]: 0.7 | Investigator global improvement index (IGII) ([2]; Face, V0 (start of the study)): 0 | Investigator global improvement index (IGII) ([2]; Face, V3 (after 90 days of treatment), 10% ibuprofen gel or 3% diclofenac gel): 3.7 | Average number of lesions at the start of the study [2, 16]: 5.2 | Average number of lesions after 90 days of treatment [2, 17]: 0.3 | Investigator global improvement index (IGII) [2, 24]: 0 | Investigator global improvement index (IGII) ([2]; Forehead, V3 (after 90 days of treatment), 10% ibuprofen gel or 3% diclofenac gel): 3.8 | Average number of lesions at the start of the study [2, 18]: 3.3 | Investigator global improvement index (IGII) ([2]; Hand, V0 (start of the study)): 0 | Investigator global improvement index (IGII) ([2]; Hand, V3 (after 90 days of treatment), 10% ibuprofen gel or 3% diclofenac gel): 3.6 | Average number of lesions after 90 days of treatment [2, 19]: 2.7 | Average number of lesions at the start of the study [2, 20]: 9.5 | Average IGII at the end of the treatment time [2, 21]: 3.7 | Total number of lesions [2, 22]: 18 | Total number of lesions [2, 23]: 3.7 | Patients completely freed from the optically visible lesions ([2]; end of the 90 days of treatment, 10% ibuprofen gel, six patients in group): three | Tolerability ([2]; human, in vivo): very good

Reference: patent US20130197089A1, “COMPOSITIONS FOR THE TREATMENT OF ACTINIC KERATOSIS” (DOLORGIET GMBH & CO. KG, priority 2012, published 2013)
